For orientation: EC50 means the concentration needed to bring the measured effect to its halfway point.

Assay [1] addresses T1, FPR1 (Homo sapiens, UniProt P21462).
T1 sequence (P21462 1-350): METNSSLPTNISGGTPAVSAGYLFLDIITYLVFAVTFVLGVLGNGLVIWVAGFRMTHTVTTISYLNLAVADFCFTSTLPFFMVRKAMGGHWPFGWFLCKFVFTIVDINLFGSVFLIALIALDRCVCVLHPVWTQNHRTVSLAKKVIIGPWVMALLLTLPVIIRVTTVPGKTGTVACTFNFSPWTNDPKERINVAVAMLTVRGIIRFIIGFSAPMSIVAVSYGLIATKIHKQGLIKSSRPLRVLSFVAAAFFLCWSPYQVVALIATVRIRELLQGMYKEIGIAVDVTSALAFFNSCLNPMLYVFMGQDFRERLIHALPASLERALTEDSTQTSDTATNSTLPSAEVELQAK
The experiment in a line: Change in calcium activity by peptide, FPR1 activation effect. It is filed as cell-based. The following applies: calcium activity (Fura-2), graded per Table 3, read-out: EC50 for [Ca^2+] FPR1. The protocol:
The day before measuring calcium activity, the cells were prepared at 3×10^5 cells per well in a 96-well flat clear bottom black plate (Costar, #3603). The prepared cells were treated with a Fura-2 QBT calcium kit (component A; Molecular Devices, #8197) at the same volume per well. After incubation at 37° C. for 1 hour, the cells were incubated in a dark room at room temperature for 30 minutes. After the Fura-2-treated cells, the prepared peptide, and a dedicated tip were placed at each section of FlexStation 3 Multi-Mode Microplate Reader (Molecular Devices, #Flex3), changes in calcium activity caused by the peptides were measured using SoftMax Pro 7 Software (Molecular Devices, #FLEX3-INSTALL-OS). […]

Assay [2] concerns the target T2, FPR2 (Homo sapiens, UniProt P25090).
T2 construct: expressed in transfected cells; host or cells: RBL cells (RBL-FPR2)
T2 sequence (P25090 1-351): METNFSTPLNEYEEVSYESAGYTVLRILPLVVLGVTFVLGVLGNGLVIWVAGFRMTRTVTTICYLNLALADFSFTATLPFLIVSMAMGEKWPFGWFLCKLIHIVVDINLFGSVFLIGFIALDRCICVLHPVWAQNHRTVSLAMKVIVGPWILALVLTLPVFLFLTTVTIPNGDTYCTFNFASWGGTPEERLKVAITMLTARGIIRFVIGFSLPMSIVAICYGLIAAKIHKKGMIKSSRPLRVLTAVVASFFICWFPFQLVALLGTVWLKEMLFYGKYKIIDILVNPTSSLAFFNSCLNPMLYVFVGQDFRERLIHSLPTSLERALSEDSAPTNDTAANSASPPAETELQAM
The experiment in a line: Change in calcium activity by peptide (Fura-2) in RBL cells overexpressing FPR2. The assay is classed as cell-based. Conditions: calcium activity (Fura-2), graded per Table 3, read-out: EC50 for [Ca^2+] FPR2. The protocol:
The present inventors observed changes in calcium ion permeability to confirm whether the immunomodulatory peptide candidates prepared according to one example of the present invention activate the immune function of a living organism. Specifically, the concentration of calcium ions in cells was measured to confirm whether the peptides activate FPR2.
A peptide dissolved in water or 50% DMSO at a concentration of 0.5 mM was prepared by diluting it to an appropriate concentration in HBSS (Sigma, #55037C)+20 mM HEPES buffer.
In this experiment, the cells were cultured in DMEM (Lonza, #BE12-604F) containing 10% fetal bovine serum (FBS) and 1% penicillin-streptomycin under conditions of 37° C. and 5% CO2.
The day before measuring calcium activity, the cells were prepared at 3×10^5 cells per well in a 96-well flat clear bottom black plate (Costar, #3603). The prepared cells were treated with a Fura-2 QBT calcium kit (component A; Molecular Devices, #8197) at the same volume per well. After incubation at 37° C. for 1 hour, the cells were incubated in a dark room at room temperature for 30 minutes. After the Fura-2-treated cells, the prepared peptide, and a dedicated tip were placed at each section of FlexStation 3 Multi-Mode Microplate Reader (Molecular Devices, #Flex3), changes in calcium activity caused by the peptides were measured using SoftMax Pro 7 Software (Molecular Devices, #FLEX3-INSTALL-OS).

Peptide text beside a SMILES is read from it. Some results are limits rather than exact numbers.

As to `CSCC[C@H](NC(=O)[C@@H]1CCCN1)C(=O)N[C@@H](CCCNC(=N)N)C(=O)N[C@@H](Cc1ccc(O)cc1)C(=O)N[C@@H](CCCCN)C(=O)N[C@@H](Cc1ccc(O)cc1)C(=O)N[C@H](CCSC)C(N)=O` [Peptide 46] (HELM PEPTIDE1{P.M.R.Y.K.Y.[dM].[am]}$$$$V2.0), the EC50 in assay [1] is more than 10000 nM; in assay [2], less than 10 nM.

In the case of `CCCC(=O)N1CCC[C@H]1C(=O)N[C@@H](CCSC)C(=O)N[C@@H](CCCNC(=N)N)C(=O)N[C@@H](Cc1ccc(O)cc1)C(=O)N[C@@H](CCCCN)C(=O)N[C@@H](Cc1ccc(O)cc1)C(=O)N[C@H](CCSC)C(N)=O` [Peptide 47] (HELM PEPTIDE1{[CCCC(=O)[*:2]].P.M.R.Y.K.Y.[dM].[am]}$$$$V2.0), the EC50 in assay [1] was more than 10000 nM; in assay [2] it was less than 10 nM.

On to `CSCC[C@@H](NC(=O)[C@H](Cc1ccc(O)cc1)NC(=O)[C@H](CCCNC(=N)N)NC(=O)[C@H](Cc1ccc(O)cc1)NC(=O)[C@H](CCCNC(=N)N)NC(=O)[C@H](Cc1c[nH]c2ccccc12)NC(=O)[C@@H](N)CCCNC(=N)N)C(N)=O` [Peptide 48] (HELM PEPTIDE1{R.W.R.Y.R.Y.[dM].[am]}$$$$V2.0), for which the results for the EC50 in assay [1] and in assay [2] were more than 10000 nM and 11 to 100 nM, respectively.

In the case of `CSCC[C@H](NC(C)=O)C(=O)N[C@@H](CCCNC(=N)N)C(=O)N[C@@H](Cc1ccc(O)cc1)C(=O)N[C@@H](CCCNC(=N)N)C(=O)N[C@@H](Cc1ccc(O)cc1)C(=O)N[C@H](CCSC)C(N)=O` [Peptide 49] (HELM PEPTIDE1{[ac].M.R.Y.R.Y.[dM].[am]}$$$$V2.0), the EC50 in assay [1] is more than 10000 nM; in assay [2] it was 11 to 100 nM.

With `CSCC[C@H](NC(=O)[C@@H](N)CCCNC(=N)N)C(=O)N[C@@H](CCCNC(=N)N)C(=O)N[C@@H](Cc1ccc(O)cc1)C(=O)N[C@@H](CCCCN)C(=O)N1CCC[C@H]1C(=O)N[C@H](CCSC)C(N)=O` [Peptide 50] (HELM PEPTIDE1{R.M.R.Y.K.P.[dM].[am]}$$$$V2.0), the EC50 in assay [1] was more than 10000 nM; in assay [2], less than 10 nM.

With `CSCC[C@H](NC(=O)[C@H](CCCNC(=N)N)NC(C)=O)C(=O)N[C@@H](CCCNC(=N)N)C(=O)N[C@@H](Cc1ccc(O)cc1)C(=O)N[C@@H](CCCCN)C(=O)N1CCC[C@H]1C(=O)N[C@H](CCSC)C(N)=O` [Peptide 51] (HELM PEPTIDE1{[ac].R.M.R.Y.K.P.[dM].[am]}$$$$V2.0), the EC50 in assay [1] was more than 10000 nM; in assay [2], less than 10 nM.

In the case of `CCCC(=O)N[C@@H](CCCNC(=N)N)C(=O)N[C@@H](CCSC)C(=O)N[C@@H](CCCNC(=N)N)C(=O)N[C@@H](Cc1ccc(O)cc1)C(=O)N[C@@H](CCCCN)C(=O)N1CCC[C@H]1C(=O)N[C@H](CCSC)C(N)=O` [Peptide 52] (HELM PEPTIDE1{[CCCC(=O)[*:2]].R.M.R.Y.K.P.[dM].[am]}$$$$V2.0), the EC50 in assay [1] is more than 10000 nM; in assay [2] it was less than 10 nM.

In the case of `CCCCCCCC(=O)N[C@@H](CCCNC(=N)N)C(=O)N[C@@H](CCSC)C(=O)N[C@@H](CCCNC(=N)N)C(=O)N[C@@H](Cc1ccc(O)cc1)C(=O)N[C@@H](CCCCN)C(=O)N1CCC[C@H]1C(=O)N[C@H](CCSC)C(N)=O` [Peptide 53] (HELM PEPTIDE1{[CCCCCCCC(=O)[*:2]].R.M.R.Y.K.P.[dM].[am]}$$$$V2.0), the results for the EC50 in assay [1] and in assay [2] were more than 10000 nM and less than 10 nM, respectively.

In the case of `CSCC[C@H](N)C(=O)N[C@@H](CCCNC(=N)N)C(=O)N[C@@H](Cc1ccc(O)cc1)C(=O)N[C@@H](CCCCN)C(=O)N1CCC[C@H]1C(=O)N[C@H](CCSC)C(N)=O` [Peptide 54] (HELM PEPTIDE1{M.R.Y.K.P.[dM].[am]}$$$$V2.0), the EC50 in assay [1] is more than 10000 nM; in assay [2], less than 10 nM.

On to `CCCC(=O)N[C@@H](CCSC)C(=O)N[C@@H](CCCNC(=N)N)C(=O)N[C@@H](Cc1ccc(O)cc1)C(=O)N[C@@H](CCCCN)C(=O)N1CCC[C@H]1C(=O)N[C@H](CCSC)C(N)=O` [Peptide 56] (HELM PEPTIDE1{[CCCC(=O)[*:2]].M.R.Y.K.P.[dM].[am]}$$$$V2.0), for which the EC50 in assay [1] was more than 10000 nM; in assay [2], less than 10 nM.

On to `CCCCCCCC(=O)N[C@@H](CCSC)C(=O)N[C@@H](CCCNC(=N)N)C(=O)N[C@@H](Cc1ccc(O)cc1)C(=O)N[C@@H](CCCCN)C(=O)N1CCC[C@H]1C(=O)N[C@H](CCSC)C(N)=O` [Peptide 57] (HELM PEPTIDE1{[CCCCCCCC(=O)[*:2]].M.R.Y.K.P.[dM].[am]}$$$$V2.0), for which the EC50 in assay [1] is more than 10000 nM; in assay [2] it was less than 10 nM.

Take `CSCC[C@H](NC(=O)[C@@H](N)Cc1c[nH]cn1)C(=O)N[C@@H](CCCNC(=N)N)C(=O)N[C@@H](Cc1ccc(O)cc1)C(=O)N[C@@H](CCCCN)C(=O)N1CCC[C@H]1C(=O)N[C@H](CCSC)C(N)=O` [Peptide 58] (HELM PEPTIDE1{H.M.R.Y.K.P.[dM].[am]}$$$$V2.0): the EC50 in assay [1] was more than 10000 nM; in assay [2], less than 10 nM.

As to `CSCC[C@H](NC(=O)[C@H](Cc1c[nH]cn1)NC(C)=O)C(=O)N[C@@H](CCCNC(=N)N)C(=O)N[C@@H](Cc1ccc(O)cc1)C(=O)N[C@@H](CCCCN)C(=O)N1CCC[C@H]1C(=O)N[C@H](CCSC)C(N)=O` [Peptide 59] (HELM PEPTIDE1{[ac].H.M.R.Y.K.P.[dM].[am]}$$$$V2.0), the EC50 in assay [1] was more than 10000 nM; in assay [2] it was less than 10 nM.

In the case of `CCCC(=O)N[C@@H](Cc1c[nH]cn1)C(=O)N[C@@H](CCSC)C(=O)N[C@@H](CCCNC(=N)N)C(=O)N[C@@H](Cc1ccc(O)cc1)C(=O)N[C@@H](CCCCN)C(=O)N1CCC[C@H]1C(=O)N[C@H](CCSC)C(N)=O` [Peptide 60] (HELM PEPTIDE1{[CCCC(=O)[*:2]].H.M.R.Y.K.P.[dM].[am]}$$$$V2.0), the results for the EC50 in assay [1] and in assay [2] were more than 10000 nM and less than 10 nM, respectively.

Take `CCCCCCCC(=O)N[C@@H](Cc1c[nH]cn1)C(=O)N[C@@H](CCSC)C(=O)N[C@@H](CCCNC(=N)N)C(=O)N[C@@H](Cc1ccc(O)cc1)C(=O)N[C@@H](CCCCN)C(=O)N1CCC[C@H]1C(=O)N[C@H](CCSC)C(N)=O` [Peptide 61] (HELM PEPTIDE1{[CCCCCCCC(=O)[*:2]].H.M.R.Y.K.P.[dM].[am]}$$$$V2.0): the figures for the EC50 in assay [1] and in assay [2] were more than 10000 nM and less than 10 nM, respectively.

`CSCC[C@H](NC(=O)[C@@H]1CCCN1)C(=O)N[C@@H](CCCNC(=N)N)C(=O)N[C@@H](Cc1ccc(O)cc1)C(=O)N[C@@H](CCCCN)C(=O)N1CCC[C@H]1C(=O)N[C@H](CCSC)C(N)=O` [Peptide 62] (HELM PEPTIDE1{P.M.R.Y.K.P.[dM].[am]}$$$$V2.0): the EC50 was more than 10000 nM in assay [1] and less than 10 nM in assay [2].

In the case of `CSCC[C@H](NC(=O)[C@@H]1CCCN1C(C)=O)C(=O)N[C@@H](CCCNC(=N)N)C(=O)N[C@@H](Cc1ccc(O)cc1)C(=O)N[C@@H](CCCCN)C(=O)N1CCC[C@H]1C(=O)N[C@H](CCSC)C(N)=O` [Peptide 63] (HELM PEPTIDE1{[ac].P.M.R.Y.K.P.[dM].[am]}$$$$V2.0), the EC50 is more than 10000 nM in assay [1] and less than 10 nM in assay [2].

For the molecule `CCCC(=O)N1CCC[C@H]1C(=O)N[C@@H](CCSC)C(=O)N[C@@H](CCCNC(=N)N)C(=O)N[C@@H](Cc1ccc(O)cc1)C(=O)N[C@@H](CCCCN)C(=O)N1CCC[C@H]1C(=O)N[C@H](CCSC)C(N)=O` [Peptide 64] (HELM PEPTIDE1{[CCCC(=O)[*:2]].P.M.R.Y.K.P.[dM].[am]}$$$$V2.0), the EC50 in assay [1] is more than 10000 nM; in assay [2] it was less than 10 nM.

Turning to `CCCCCCCC(=O)N1CCC[C@H]1C(=O)N[C@@H](CCSC)C(=O)N[C@@H](CCCNC(=N)N)C(=O)N[C@@H](Cc1ccc(O)cc1)C(=O)N[C@@H](CCCCN)C(=O)N1CCC[C@H]1C(=O)N[C@H](CCSC)C(N)=O` [Peptide 65] (HELM PEPTIDE1{[CCCCCCCC(=O)[*:2]].P.M.R.Y.K.P.[dM].[am]}$$$$V2.0), the EC50 in assay [1] was more than 10000 nM; in assay [2], less than 10 nM.
